Measurements published in patent publication US9321756B2, “Azole compounds as PIM inhibitors” (priority 2011, dated 2016).
Where two headings read alike, the source gives them in different places.

What was measured:
[1] = target: full length recombinant Pim-2 (Homo sapiens (Human), UniProt Q9P1W9); assay: Pim enzyme assay (HTRF, phosphorylation of biotinylated-BAD (S112) peptide), Pim-2; format: biochemical; conditions: Pim-2 enzyme assay; read-out: Pim2_IC50
[2] = tested on: Pim-1 stably transfected U2OS human osteogenic sarcoma line; assay: Pim cell assay U2OS (phospho-BAD normalized against total BAD), Pim-1 transfected; format: cell-based
Method: The cell lines used in the assay were generated by the stable transfection of either Pim-1 or Pim-2 into the U2OS human osteogenic sarcoma line. The assay for determination of the Pim activity in the engineered U2OS cell lines measures levels of phospho-BAD normalized against total BAD protein levels. It was conducted as follows:
The adherent cells were dissociated from the flasks using non-enzymatic cell dissociation solution (Sigma #C5914). […] The cells were then incubated overnight at 37° C., 5% CO2.
In addition to the 10-point dosing curve of the test compound, DMSO alone was run as the high control.
This dilution in DMSO was then diluted again into cell growth medium. Aliquots (12 μL) of the compound diluted in growth medium were then transferred to the appropriate wells of the 96-well plates containing cells to a final DMSO concentration of 0.3%. The cell plates were then incubated with compound for 29 min at 37° C., 5% CO2.
The cell plates containing lysis buffer were then immediately stored at −70° C.
These prepared lysates were then assayed for phospho and total BAD according to the manufacturer's protocols (Meso Scale Diagnostics, Cat#K15103C-3 & #K15103D-3). The plates were read on the MSD Sector Imager 6000, and results were calculated according to the assay protocols ((% Phosphoprotein=((2×Phospho signal)/(Phospho signal+Total signal))×100)).

[3] = target: full length recombinant Pim-3 (Homo sapiens (Human), UniProt Q86V86); assay: Pim enzyme assay (HTRF, phosphorylation of biotinylated-BAD (S112) peptide), Pim-3; format: biochemical; conditions: Pim-3 enzyme assay; read-out: Pim3 IC50
How it was run: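 IC50 values were fitted with a 4-parameter logistic model to percent-of-control HTRF signal (Eu anti-phospho-BAD S112 antibody/streptavidin-APC). Reactions used full-length Pim-3 and biotin-BAD (S112) peptide, ran 1 h 30 min at RT (22 °C) in Hepes pH 7.0 buffer with BSA and DTT, and were stopped by 3 mM EDTA.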

[4] = target: full length recombinant Pim-1 (Homo sapiens (Human), UniProt P11309); assay: Pim enzyme assay (HTRF, phosphorylation of biotinylated-BAD (S112) peptide), Pim-1; format: biochemical; conditions: read-out: Pim_1_IC50
full length recombinant Pim-1, sequence (P11309 whole entry): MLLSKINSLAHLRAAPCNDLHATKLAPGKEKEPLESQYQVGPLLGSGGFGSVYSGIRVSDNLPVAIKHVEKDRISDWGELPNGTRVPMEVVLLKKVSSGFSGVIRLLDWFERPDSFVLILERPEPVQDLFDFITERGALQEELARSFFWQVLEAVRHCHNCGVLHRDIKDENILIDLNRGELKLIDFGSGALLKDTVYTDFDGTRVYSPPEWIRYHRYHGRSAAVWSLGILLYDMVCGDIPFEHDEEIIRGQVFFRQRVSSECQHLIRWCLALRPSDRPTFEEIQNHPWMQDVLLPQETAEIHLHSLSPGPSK

[5] = Homo sapiens, U2OS, read-out: U2OS Pim1_Cell_IC50, U2OS cells, Pim-1 transfected
[6] = Homo sapiens, U2OS, read-out: U2OS Pim1_Cell_IC50
[7] = read-out: U2OS Pim1_Cell_IC50, U2OS cells, Pim-1 transfected

full length recombinant Pim-2, sequence (Q9P1W9 whole entry): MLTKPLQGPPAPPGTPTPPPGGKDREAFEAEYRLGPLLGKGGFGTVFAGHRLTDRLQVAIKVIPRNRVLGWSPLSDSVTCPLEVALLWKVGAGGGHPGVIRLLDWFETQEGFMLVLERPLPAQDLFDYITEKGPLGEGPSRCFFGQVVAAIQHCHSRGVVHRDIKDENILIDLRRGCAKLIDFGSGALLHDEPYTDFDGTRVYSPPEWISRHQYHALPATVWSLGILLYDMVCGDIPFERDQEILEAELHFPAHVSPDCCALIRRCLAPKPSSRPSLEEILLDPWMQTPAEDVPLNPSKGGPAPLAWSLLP

IC50 [1] [nM]	IC50 [3] [nM]	IC50 ([4]; Pim-1 enzyme assay) [nM]	Structure (SMILES)	IC50 [2, 5] [nM]	IC50 [2, 6] [nM]	IC50 [2, 7] [nM]	IC50 [4] [nM]	IC50 ([2]; Homo sapiens, U2OS cells, Pim-1 transfected, read-out: U2OS Pim1_Cell_IC50) [nM]
106	18.4	29.3	Fc1ccccc1-c1c[nH]c2ccc(-c3nnc(N[C@H]4CCCNC4)s3)cc12 (stereo in doubt) [Example 139, N-(5-(3-(2-fluorophenyl)-1H-indol-5-yl)-1,3,4-thiadiazol-2-yl)-3-piperidinamine]	578				
244	13.4	73.2	N[C@H]1CCN(c2nnc(-c3ccc4[nH]cc(-c5ccccc5F)c4c3)s2)C1 (stereo in doubt) [Example 140, 1-(5-(3-(2-fluorophenyl)-1H-indol-5-yl)-1,3,4-thiadiazol-2-yl)-3-pyrrolidinamine]		871			
159	23.6	41	C[C@@H]1CCCN(c2cccc(-c3c[nH]c4ccc(-c5nnc(N)s5)cc34)n2)C1 (stereo in doubt) [Example 174, 5-(3-(6-(3-methyl-1-piperidinyl)-2-pyridinyl)-1H-indol-5-yl)-1,3,4-thiadiazol-2-amine]		998			
114		40.5	Nc1nnc(-c2ccc3[nH]cc(-c4cccc(OC5CCCCC5)n4)c3c2)s1 [Example 173, 5-(3-(6-(cyclohexyloxy)-2-pyridinyl)-1H-indol-5-yl)-1,3,4-thiadiazol-2-amine]					1020
1630	181	234	CNc1nnc(-c2ccc3[nH]cc(-c4cnc5ccccc5c4)c3c2)s1 [Example 217, N-methyl-5-(3-(3-quinolinyl)-1H-indol-5-yl)-1,3,4-thiadiazol-2-amine]					
623	123	241	CNc1nnc(-c2ccc3[nH]cc(-c4cn[nH]c4)c3c2)s1 [Example 218, N-methyl-5-(3-(1H-pyrazol-4-yl)-1H-indol-5-yl)-1,3,4-thiadiazol-2-amine]					
686	204	551	CNc1nnc(-c2ccc3[nH]cc(-c4ccncc4)c3c2)s1 [Example 219, N-methyl-5-(3-(4-pyridinyl)-1H-indol-5-yl)-1,3,4-thiadiazol-2-amine]					
1230	274	636	CNc1nnc(-c2ccc3[nH]cc(-c4cccnc4)c3c2)s1 [Example 220, N-methyl-5-(3-(3-pyridinyl)-1H-indol-5-yl)-1,3,4-thiadiazol-2-amine]					
1490	158	744	CNc1nnc(-c2ccc3[nH]cc(-c4cccc(N)c4)c3c2)s1 [Example 221, 5-(3-(3-aminophenyl)-1H-indol-5-yl)-N-methyl-1,3,4-thiadiazol-2-amine]					
1440	268	1010	CNc1nnc(-c2ccc3[nH]cc(-c4ccn[nH]4)c3c2)s1 [Example 222, N-methyl-5-(3-(1H-pyrazol-5-yl)-1H-indol-5-yl)-1,3,4-thiadiazol-2-amine]					
> 3000	207	1890	CNc1nnc(-c2ccc3[nH]cc(-c4cccc(C(F)(F)F)c4)c3c2)s1 [Example 224, N-methyl-5-(3-(3-(trifluoromethyl)phenyl)-1H-indol-5-yl)-1,3,4-thiadiazol-2-amine]					
> 3000	416	2360	CNc1nnc(-c2ccc3[nH]cc(-c4cccc(OC(F)(F)F)c4)c3c2)s1 [Example 225, N-methyl-5-(3-(3-(trifluoromethoxy)phenyl)-1H-indol-5-yl)-1,3,4-thiadiazol-2-amine]					
> 3000	354	2450	CNc1nnc(-c2ccc3[nH]cc(-c4cccc(OC)c4)c3c2)s1 [Example 226, 5-(3-(3-methoxyphenyl)-1H-indol-5-yl)-N-methyl-1,3,4-thiadiazol-2-amine]					
123	18.5	108	CNc1nnc(-c2ccc3[nH]cc(-c4cccc(-n5ccnc5C)n4)c3c2)s1 [Example 234, N-methyl-5-(3-(6-(2-methyl-1H-imidazol-1-yl)-2-pyridinyl)-1H-indol-5-yl)-1,3,4-thiadiazol-2-amine]					
538	114	325	CNc1nnc(-c2ccc3[nH]cc(-c4cccc(N5CCCCC5=O)n4)c3c2)s1 [Example 236, 1-(6-(5-(5-(methylamino)-1,3,4-thiadiazol-2-yl)-1H-indol-3-yl)-2-pyridinyl)-2-piperidinone]					
1220	227	538	CNc1nnc(-c2ccc3[nH]cc(-c4c(F)cccc4F)c3c2)s1 [Example 237, 5-(3-(2,6-difluorophenyl)-1H-indol-5-yl)-N-methyl-1,3,4-thiadiazol-2-amine]					
856	197	712	CNc1nnc(-c2ccc3[nH]cc(-c4cccc(-n5ccccc5=O)n4)c3c2)s1 [Example 238, 6′-(5-(5-(methylamino)-1,3,4-thiadiazol-2-yl)-1H-indol-3-yl)-2H-1,2′-bipyridin-2-one]					
739	170	1030	CNc1nnc(-c2ccc3[nH]cc(-c4cccc(F)n4)c3c2)s1 [Example 239, 5-(3-(6-fluoro-2-pyridinyl)-1H-indol-5-yl)-N-methyl-1,3,4-thiadiazol-2-amine]					
2640	409	1520	CNc1nnc(-c2ccc3[nH]cc(-c4csc(-c5ccoc5)n4)c3c2)s1 [Example 240, 5-(3-(2-(3-furanyl)-1,3-thiazol-4-yl)-1H-indol-5-yl)-N-methyl-1,3,4-thiadiazol-2-amine]					
> 10000	414	2180	CNc1nnc(-c2ccc3[nH]cc(-c4ccc(-c5cccs5)s4)c3c2)s1 [Example 241, 5-(3-(2,2′-bithiophen-5-yl)-1H-indol-5-yl)-N-methyl-1,3,4-thiadiazol-2-amine]					
> 3000	351	983	NC(=O)c1nnc(-c2ccc3[nH]cc(-c4cccc(N5CCOCC5)n4)c3c2)s1 [Example 242, 5-(3-(6-(4-morpholinyl)-2-pyridinyl)-1H-indol-5-yl)-1,3,4-thiadiazole-2-carboxamide]					
677	123	323	c1ccc(-c2nnc(-c3ccc4[nH]cc(-c5nccc(C6CC6)n5)c4c3)o2)cc1 [Example 255, 3-(4-cyclopropyl-2-pyrimidinyl)-5-(5-phenyl-1,3,4-oxadiazol-2-yl)-1H-indole]					
229	43.6	64.8	CC(Nc1nnc(-c2ccc3[nH]cc(-c4ncccn4)c3c2)o1)c1ccccc1 (stereo not shown) [Example 266, N-(1-phenylethyl)-5-(3-(2-pyrimidinyl)-1H-indol-5-yl)-1,3,4-oxadiazol-2-amine]					
231	56.1	97.2	CC(Nc1nnc(-c2ccc3[nH]cc(-c4ccccn4)c3c2)o1)c1ccccc1 (stereo not shown) [Example 267, N-(1-phenylethyl)-5-(3-(2-pyridinyl)-1H-indol-5-yl)-1,3,4-oxadiazol-2-amine]					
559	81.2	171	CC(Nc1nnc(-c2ccc3[nH]cc(-c4cnccn4)c3c2)o1)c1ccccc1 (stereo not shown) [Example 268, N-(1-phenylethyl)-5-(3-(2-pyrazinyl)-1H-indol-5-yl)-1,3,4-oxadiazol-2-amine]					

Structure (SMILES)	IC50 [1] [nM]	IC50 [3] [nM]	IC50 ([4]; Pim-1 enzyme assay) [nM]	IC50 [2, 5] [nM]	IC50 [2, 6] [nM]	IC50 [2, 7] [nM]	IC50 [4] [nM]	IC50 ([2]; Homo sapiens, U2OS cells, Pim-1 transfected, read-out: U2OS Pim1_Cell_IC50) [nM]
Fc1ccccc1-c1c[nH]c2ccc(-c3nnc(NCC[C@H]4CCCCN4)s3)cc12 (stereo in doubt) [Example 141, 5-(3-(2-fluorophenyl)-1H-indol-5-yl)-N-(2-(2-piperidinyl)ethyl)-1,3,4-thiadiazol-2-amine]	480	49.6	74		1110			
Nc1nnc(-c2ccc3[nH]cc(-c4cccc(N5CCCC5)n4)c3c2)s1 [Example 14, 5-(3-(6-(pyrrolidin-1-yl)pyridin-2-yl)-1H-indol-5-yl)-1,3,4-thiadiazol-2-amine]	42					159	11.1	
Nc1nnc(-c2ccc3[nH]cc(-c4cncc(NC5CC5)n4)c3c2)s1 [Example 15, 5-(3-(6-(cyclopropylamino)pyrazin-2-yl)-1H-indol-5-yl)-1,3,4-thiadiazol-2-amine]	20.1			108			4.57	
Nc1nnc(-c2ccc3[nH]cc(-c4cccc(N5CCCC5)n4)c3c2)s1 [Example 176, 5-(3-(6-(1-pyrrolidinyl)-2-pyridinyl)-1H-indol-5-yl)-1,3,4-thiadiazol-2-amine]	104					526	43.5	
